Experiments:
[1] = tested on: nociception (tail-flick); experiment: Tail-flick test after intracerebroventricular administration; format: in vivo; details: rat tail-flick
[2] = tested on: mu receptors; format: cell-based, guinea pig
[3] = tested on: electrically stimulated mouse vas deferens; experiment: tissue or blood; format: cell-based; details: Mus musculus, read-out: Mouse vas deferens maximum inhibition
[4] = molecular target: mu opioid receptors (Cavia porcellus, UniProt A0ACM8Q262); format: binding, guinea pig
[5] = molecular target: T1, delta receptors (Cavia porcellus, UniProt A0A286XTF2); experiment: biochemical; format: binding, guinea pig
T1 construct: The brains were then homogenized in 50 mM Tris HCl, buffer pH 7.7, using a Polytron; from tissue; host or cells: guinea pig brain homogenate (membrane pellet)

[6] = tested on: morphine withdrawal signs; experiment: Single dose substitution and precipitated morphine withdrawal in morphine dependent Rhesus monkeys; details: sc, M3A6S 2.5 and 10.0 mg/kg, DM3A6S 3.0, 12.0 and […]
[7] = tested on: kappa3 receptors; format: binding, guinea pig; details: for Ki: read-out: Ki κ3 [^3H]NalBzoH
[8] = molecular target: T2, kappa receptors (Cavia porcellus, UniProt P41144); format: cell-based, guinea pig
T2 construct: The longitudinal muscle with the myenteric plexus attached was gently separated from the underlying circular muscle; from tissue; host or cells: guinea pig ileum longitudinal muscle with myenteric plexus

[9] = tested on: electrically stimulated guinea pig ileum; experiment: tissue or blood; format: cell-based; details: for IC50: Cavia porcellus, read-out: Guinea Pig Ileum IC50 (nM)
[10] = molecular target: T3, kappa1 sites (Cavia porcellus, UniProt P41144); experiment: biochemical; format: binding, guinea pig
T3 construct: The brains were then homogenized in 50 mM Tris HCl, buffer pH 7.7, using a Polytron; from tissue; host or cells: guinea pig brain homogenate (membrane pellet)

[11] = tested on: nociception (tail-flick); experiment: Tail-flick test after subcutaneous administration; details: rat tail-flick, sc, dose equimolar to 5 mg/kg morphine
[12] = tested on: κ2 sites; format: binding, guinea pig
[13] = molecular target: T4, κ opioid receptor (Cavia porcellus, UniProt P41144); experiment: Antagonist activity (pA2) at κ in the functional assays; format: cell-based
T4 construct: from tissue; host or cells: organ-bath tissue, probably guinea pig ileum

[14] = molecular target: T5, δ opioid receptor (Mus musculus, UniProt P32300); experiment: Antagonist activity (pA2) at δ in the functional assays; format: cell-based
T5 construct: from tissue; host or cells: organ-bath tissue, probably mouse vas deferens

[15] = icv, molar dose equivalent to the lower dose of morphine

T3 sequence (P41144 whole entry): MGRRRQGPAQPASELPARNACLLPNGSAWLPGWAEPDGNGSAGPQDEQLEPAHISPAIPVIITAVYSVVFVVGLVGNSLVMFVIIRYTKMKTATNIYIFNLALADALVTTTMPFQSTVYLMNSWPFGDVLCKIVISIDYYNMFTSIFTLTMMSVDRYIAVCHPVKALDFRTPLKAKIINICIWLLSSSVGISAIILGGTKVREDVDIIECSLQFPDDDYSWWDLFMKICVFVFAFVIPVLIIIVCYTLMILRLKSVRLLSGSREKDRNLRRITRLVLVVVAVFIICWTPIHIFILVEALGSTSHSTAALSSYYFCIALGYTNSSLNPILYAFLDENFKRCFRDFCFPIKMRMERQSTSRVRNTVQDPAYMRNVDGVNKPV
T2 sequence (P41144 whole entry): as above
T1 sequence (A0A286XTF2 1-366): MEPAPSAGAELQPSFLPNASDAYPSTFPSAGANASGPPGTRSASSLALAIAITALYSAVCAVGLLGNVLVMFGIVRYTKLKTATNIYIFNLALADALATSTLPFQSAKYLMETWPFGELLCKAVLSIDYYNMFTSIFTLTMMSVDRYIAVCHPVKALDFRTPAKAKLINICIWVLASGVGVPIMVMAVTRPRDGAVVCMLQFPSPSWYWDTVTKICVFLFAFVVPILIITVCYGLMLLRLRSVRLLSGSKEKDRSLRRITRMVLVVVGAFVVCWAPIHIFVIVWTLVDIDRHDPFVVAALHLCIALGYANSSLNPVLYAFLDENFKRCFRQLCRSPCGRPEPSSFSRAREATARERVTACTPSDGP
mu opioid receptors, sequence (A0ACM8Q262 1-400): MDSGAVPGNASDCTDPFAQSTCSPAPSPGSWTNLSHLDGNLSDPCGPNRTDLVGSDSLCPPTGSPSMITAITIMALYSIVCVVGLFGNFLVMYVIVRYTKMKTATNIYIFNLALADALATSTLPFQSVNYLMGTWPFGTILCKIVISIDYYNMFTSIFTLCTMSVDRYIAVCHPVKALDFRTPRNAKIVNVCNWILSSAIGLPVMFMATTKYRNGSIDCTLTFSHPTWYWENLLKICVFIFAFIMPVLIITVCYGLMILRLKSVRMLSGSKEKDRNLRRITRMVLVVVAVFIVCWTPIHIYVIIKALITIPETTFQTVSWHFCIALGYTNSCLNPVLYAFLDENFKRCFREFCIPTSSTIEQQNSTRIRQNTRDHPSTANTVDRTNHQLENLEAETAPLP
T4 sequence (P41144 whole entry): as the sequence (P41144 whole entry) above
T5 sequence (P32300 whole entry): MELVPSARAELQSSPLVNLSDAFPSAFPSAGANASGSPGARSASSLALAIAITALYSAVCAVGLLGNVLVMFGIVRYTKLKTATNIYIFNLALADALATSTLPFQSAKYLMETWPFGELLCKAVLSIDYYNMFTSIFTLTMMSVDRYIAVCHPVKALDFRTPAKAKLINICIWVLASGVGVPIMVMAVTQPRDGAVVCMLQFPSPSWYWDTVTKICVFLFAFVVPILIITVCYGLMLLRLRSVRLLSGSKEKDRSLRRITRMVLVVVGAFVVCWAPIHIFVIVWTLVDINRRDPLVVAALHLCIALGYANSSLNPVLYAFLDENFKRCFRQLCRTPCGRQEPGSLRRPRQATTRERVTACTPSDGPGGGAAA

| SMILES | Guinea Pig Ileum DR with CTAP [2] | Guinea Pig Ileum Ke of CTAP [2] | Guinea Pig Ileum Ratio (CTAP) [2] | affinity to mu receptors in words [4] | selectivity for mu-receptors, greater than morphine [4] | Ki [5] | affinity to kappa3 receptors in words [7] | selectivity for kappa3 receptors, greater than morphine [7] | Ki [7] | Guinea Pig Ileum DR with Nor-BNI [8] | Guinea pig ileum, result in words [9] | IC50 [9] | Ki [10] | binding to kappa1 sites in words [10] | duration of maximal analgesia [1, 15] | analgesic activity in words [11] | duration of maximal analgesic effect [11] | IC50 [12] | Kb [13] | Kb [14] | also measured |
| --- | --- | --- | --- | --- | --- | --- | --- | --- | --- | --- | --- | --- | --- | --- | --- | --- | --- | --- | --- | --- | --- |
| CN1CC[C@]23c4c5ccc(O)c4O[C@H]2[C@@H](O)C=C[C@H]3[C@H]1C5 [Morphine, morphine] | – | – | – | – | – | – | – | – | – | – | – | – | – | – | – | – | – | – | – | – | onset of analgesic response after icv injection ([1]; higher dose 23.6 μg/4 μl/rat): 6 min |
| CC(=O)Oc1ccc2c3c1O[C@H]1[C@@H](OS(=O)(=O)O)C=C[C@H]4[C@@H](C2)N(C)CC[C@@]341 [NIDA # 20,264, 3-O-Acetylmorphine-6-O-sulfate] | 5.40 ± 0.18 | 22.73 ± 0.91 | 0.851 | greater affinity than that of morphine | 3 fold | 308 nM | greater affinity than that of morphine | 2.2 fold | 5.5 nM | 1.39 ± 0.14 | inhibited electrically induced twitches | 25.9 ± 5.3 nM | 1160 nM | weakly | 90 min | analgesic profile similar to that of M6S | 4 h | > 10000 nM | – | – | inhibition at 200 µM [3]: 30%; Ki mu/Ki delta [4]: 0.0026; substitution for morphine / withdrawal, in words [6]: did not substitute for morphine, nor did it exacerbate withdrawal; Guinea Pig Ileum Ke of Nor-BNI [8]: 54.42 ± 19.6; Guinea Pig Ileum Ratio (Nor-BNI) [8]: 0.001; time to maximal analgesic effect [1, 15]: 10 min |
| CN1CC[C@]23c4c5ccc(O)c4O[C@H]2[C@@H](OS(=O)(=O)O)C=C[C@H]3[C@H]1C5 [NIDA # 20,266, Morphine-6-O-Sulfate] | 5.00 ± 2.16 | 29.18 ± 15.7 | 0.663 | greater affinity than that of morphine | 3 fold | 18 nM | greater affinity than that of morphine | 2.2 fold | 6.3 nM | 0.87 ± 0.06 | inhibited electrically induced twitches | 67 ± 12.1 nM | 1190 nM | weakly | 70 min | maximal analgesic effect similar to morphine | over 3 hours | > 10000 nM | – | – | affinity to delta receptors in words [5]: greater affinity than that of morphine |
| C=CCN1CC[C@]23c4c5ccc(O)c4O[C@H]2/C(=N/NC(=O)c2ccccc2)CC[C@@]3(O)[C@H]1C5 [NalBzoH, naloxone benzoylhydrazone] | – | – | – | – | – | 1.4 nM | – | – | 0.3 nM | – | – | – | 0.4 nM | – | – | – | – | 66.5 nM | 17.4 nM | 17.4 nM | – |
| Oc1ccc2c3c1O[C@H]1c4[nH]c5ccccc5c4C[C@@]4(O)[C@@H](C2)N(CC2CC2)CC[C@]314 [Naltrindole] | – | – | – | – | – | – | – | – | 12.4 nM | – | – | – | 7.8 nM | – | – | – | – | 540 nM | 24.5 nM | 0.012 nM | – |
